Assay results taken from publication PMC11274883, “Anticancer Effect of Pt^[sequence], Pt^II5MESS, Pt^II56MESS and Their Platinum(IV)-Dihydroxy Derivatives against Triple-Negative Breast Cancer and Cisplatin-Resistant Colorectal Cancer” (Cancers, 2024).

How the values were obtained:
Assay type in all cases: cell-based
[1] = tested on: HT29 cells; test: DCFDA cellular ROS detection assay; details: complexes at IC50, TBHP 20 µM
Summary of the method: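 Cells seeded at 2500 cells/well overnight, then loaded with 25 µM DCFH-DA for 45 min. DCF fluorescence (ex/em 485/535 nm, RFU) read at multiple time points; 20 µM TBHP served as positive control. Three independent experiments in triplicate.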

[2] = tested on: MDA−MB−231 cells; test: Western blot protein expression; details: MDA−MB−231, IC50, 72 h
Procedure: (§1) Protein extraction was then performed on ice. Media were collected in Eppendorf tubes, and centrifuged at 500× g for 5 min at 4 °C. Meanwhile, 200 µL of lysis RIPA buffer, made up of 150 mM NaCl, 50 mM Tris-HCl, pH 8.0, 0.1% Triton X-100, 0.5% sodium deoxycholate, 0.1% SDS and 1 mM sodium orthovanadate, was added to each well, the cells were scrapped into the buffer, and added to the media-derived pellets. The tubes were placed on the shaker for 10 min at 4 °C. Then, cell extracts were centrifuged at 12,000× g for 15 min at 4 °C, and the supernatants (containing the proteins) were collected. The Bio-Rad-DC protein assay (Bio-Rad, Hercules, CA, USA) was used to assess protein content. Laemmli protein sample buffer (4×) with β-mercaptoethanol (9%) was used to prepare a final protein concentration of 20 µg. The samples were then heated at 100 °C for 5 min. A final volume of 30 µL of each sample was added per well and subjected to SDS-PAGE using Bolt 4–12% Bis-Tris gel (Thermo Fisher, Eugene, OR, USA) at 80 V for 30 min and then 120 V for 60 min with PageRuler™ Prestained Protein or SeeBlue Prestained Protein Ladder (Thermo Fisher, Eugene, OR, USA). Proteins were subsequently transferred to a 0.2 µm PVDF membrane (Amersham, Cytiya) using a semi-dry blot transfer. The membrane was then blocked in 5% BSA in TBST, for 1 h and probed overnight at 4 °C with primary antibodies against several cell proliferation, apoptotic, anti-apoptotic, microtubule and autophagic protein markers listed in Table S7 as per the manufacturer’s protocol. The primary antibody was then removed, washed three times for 10 min with TBST and then membranes were treated with either mouse or rabbit HRP-coupled secondary antibodies (1/3000) for 1 h and 30 min. Protein band detection was then performed using the chemiluminescence ECL kit (Thermo Fisher, Eugene, OR, USA). Blot images were obtained using the Odyssey® FC imaging system (LI-COR Biosciences, Lincoln, NE, USA) and band intensities were quantified relatively to glyceraldehyde-3-phosphate dehydrogenase (GAPDH) and then normalised each replicate gel to its corresponding no treatment control using the ImageJ v1.53t software (National Institutes of Health, Bethesda, MD, USA). Each marker results from the same experiment or parallel experiment where the gels were processed in parallel. Three independent experiments per marker were conducted.

[3] = tested on: HT29 cells; test: Western blot protein expression; details: HT29, IC50, 72 h
Procedure: as §1

[4] = tested on: MDA−MB−231; test: WST-1 cytotoxicity, 72 h
Procedure: (§2) Cells were seeded in 96-well flat-bottom culture plates at a concentration of 1000 cells per well. […] After 72 h, the medium was removed and replaced with new medium. The cell viability reagent WST-1 (10 µL, Roche Diagnostics, Indianapolis, IN, USA) was added to each well. After an hour, the absorbance was measured at 450 nm using a versatile microplate reader (Bio-strategy, Campbellfield, VIC, Australia). Three separate experiments were performed, each with n = 3 replicates. GraphPad prism 10 was used to calculate apparent IC50 values using the nonlinear regression model Y = Bottom + (Top-Bottom)/(1 + 10^(X-LogIC50)) where Top and bottom are plateaus in the y-axis (% survival).

[5] = tested on: MCF−7; test: WST-1 cytotoxicity, 72 h
Procedure: as §2

[6] = tested on: ADDP; test: WST-1 cytotoxicity, 72 h
Procedure: as §2

[7] = tested on: HT29; test: WST-1 cytotoxicity, 72 h
Procedure: as §2

[8] = tested on: A2780; test: WST-1 cytotoxicity, 72 h
Procedure: as §2

[9] = representative blot Figure S30G
[10] = representative blot Figure S30H

Cc1c(C)c2cccnc2c2ncccc12.N[C@H]1CCCC[C@@H]1N.O=[N+]([O-])[O-].O=[N+]([O-])[O-].[Pt+2] [Pt^II56MESS, [Pt(5,6-dimethyl-1,10-phenanthroline)(1S,2S-diaminocyclohexane)](NO3)2]
ROS production ([1]; HT29, 24 h): 321.56 RFU | ROS production ([1]; HT29, 48 h): 433.67 RFU | ROS production ([1]; HT29, 72 h): 453.89 RFU | β-actin/GAPDH normalized to control (1) ([2]; representative blot Figure S24A): 0.5956 | β-tubulin/GAPDH normalized to control (1) ([2]; representative blot Figure S24B): 0.5978 | α-tubulin/GAPDH normalized to control (1) ([2]; representative blot Figure S24C): 0.7887 | p-AKT/AKT/GAPDH normalized to control (1) ([2]; representative blot Figure S25A): 0.5229 | p-ERK/ERK/GAPDH normalized to control (1) ([2]; representative blot Figure S25B): 0.06081 | p53/GAPDH normalized to control (1) ([2]; representative blot Figure S25C): 0.6187 | p21/GAPDH normalized to control (1) ([2]; representative blot Figure S25D): 2.6 | Bax/GAPDH normalized to control (1) ([2]; representative blot Figure S26A): 1.276 | Bcl2/GAPDH normalized to control (1) ([2]; representative blot Figure S26B): 0.6846 | Cytochrome C/GAPDH normalized to control (1) ([2]; representative blot Figure S26C): 3.109 | Procaspase 8/GAPDH normalized to control (1) ([2]; representative blot Figure S26D): 0.3584 | Cleaved BID/GAPDH normalized to control (1) ([2]; representative blot Figure S26E): 14.74 | Procaspase 9/GAPDH normalized to control (1) ([2]; representative blot Figure S26F): 0.4755 | Procaspase 3/GAPDH normalized to control (1) ([2]; representative blot Figure S26G): 0.4243 | PARP-1/GAPDH normalized to control (1) ([2]; representative blot Figure S26H): 0.634 | Beclin1/GAPDH normalized to control (1) ([2]; representative blot Figure S27A): 3.15 | ATG5/GAPDH normalized to control (1) ([2]; representative blot Figure S27B): 0.4012 | ATG16L1/GAPDH normalized to control (1) ([2]; representative blot Figure S27C): 0.5726 | ATG9A/GAPDH normalized to control (1) ([2]; representative blot Figure S27D): 0.2848 | ATG4B/GAPDH normalized to control (1) ([2]; representative blot Figure S27E): 2.107 | LC3B/GAPDH normalized to control (1) ([2]; representative blot Figure S27F): 0.8478 | β-actin/GAPDH normalized to control (1) ([3]; representative blot Figure S28A): 0.4943 | β-tubulin/GAPDH normalized to control (1) ([3]; representative blot Figure S28B): 0.2182 | α-tubulin/GAPDH normalized to control (1) ([3]; representative blot Figure S28C): 0.04906 | p-AKT/AKT/GAPDH normalized to control (1) ([3]; representative blot Figure S29A): 0.5359 | p-ERK/ERK/GAPDH normalized to control (1) ([3]; representative blot Figure S29B): 0.8325 | p53/GAPDH normalized to control (1) ([3]; representative blot Figure S29C): 1.014 | p21/GAPDH normalized to control (1) ([3]; representative blot Figure S29D): 1.281 | Bax/GAPDH normalized to control (1) ([3]; representative blot Figure S30A): 2.693 | Bcl2/GAPDH normalized to control (1) ([3]; representative blot Figure S30B): 0.04576 | Cyt C/GAPDH normalized to control (1) ([3]; representative blot Figure S30C): 6.706 | Procaspase 8/GAPDH normalized to control (1) ([3]; representative blot Figure S30D): 0.2505 | Cleaved BID/GAPDH normalized to control (1) ([3]; representative blot Figure S30E): 2.821 | Procaspase 9/GAPDH normalized to control (1) ([3]; representative blot Figure S30F): 0.2717 | Cleaved caspase 3/GAPDH normalized to control (1) [3, 9]: 5.099 | Procaspase 3/GAPDH normalized to control (1) [3, 9]: 0.8936 | Cleaved PARP-1/GAPDH normalized to control (1) [3, 10]: 7.064 | PARP-1/GAPDH normalized to control (1) [3, 10]: 0.317 | Beclin1/GAPDH normalized to control (1) ([3]; representative blot Figure S31A): 5.632 | ATG5/GAPDH normalized to control (1) ([3]; representative blot Figure S31B): 0.6185 | ATG16L1/GAPDH normalized to control (1) ([3]; representative blot Figure S31C): 1.309 | ATG9A/GAPDH normalized to control (1) ([3]; representative blot Figure S31D): 1.516 | ATG4B/GAPDH normalized to control (1) ([3]; representative blot Figure S31E): 0.7106 | LC3B/GAPDH normalized to control (1) ([3]; representative blot Figure S31F): 1.044 | Selective cytotoxicity index (SCI) ([4]; IC50 MCF10A/IC50 MDA−MB−231): 2.93 | potency relative to cisplatin ([4]; MDA−MB−231, 72 h): 93 fold | IC50 ([4]; MDA−MB−231, 72 h, mean ± SEM): 0.14 µM | Selective cytotoxicity index (SCI) ([5]; IC50 MCF10A/IC50 MCF−7): 0.73 | potency relative to cisplatin ([5]; MCF−7, 72 h): 59 fold | IC50 ([5]; MCF−7, 72 h, mean ± SEM): 0.56 µM | potency relative to cisplatin ([6]; ADDP, 72 h): 147 fold | IC50 ([6]; ADDP, 72 h, mean ± SEM): 0.76 ± 1.27 µM | Selective cytotoxicity index (SCI) ([6]; IC50 MCF10A/IC50 ADDP): 0.54 | potency relative to cisplatin ([7]; HT29, 72 h): 432 fold | IC50 ([7]; HT29, 72 h, mean ± SEM): 0.18 µM | Selective cytotoxicity index (SCI) ([7]; IC50 MCF10A/IC50 HT29): 2.28 | potency relative to cisplatin ([8]; A2780, 72 h): 113 fold | IC50 ([8]; A2780, 72 h, mean ± SEM): 0.19 µM | Selective cytotoxicity index (SCI) ([8]; IC50 MCF10A/IC50 A2780): 2.16
